Some results are limits rather than exact numbers.

Data set [1] deals with Leishmania donovani. Kind of data set: Inhibition of succinate-ubiquinone oxidoreductase in Leishmania donovani promastigotes mitochondria using succinate as substrate in presence fo DCPIP by photometry analysis relative to control. The conditions noted are these: concentration not given here.
For data set [2], the system named is Leishmania donovani. As to the kind of experiment: Induction of mitochondrial dysfunction in Leishmania donovani promastigotes assessed as reduction in mitochondrial membrane potential at 50 uM after 15 mins by JC-1 staining-based flow cytometric analysis (reference value: 7.73%). In kind it is functional. Further details: scale not given: the % may be the effect or the level left.

A short description of data set [3]: Cytotoxicity against African green monkey Vero cells assessed as cell viability at 25 uM by MTT assay relative to control. The settings on record: chlorocebus sabaeus, read-out: Activity. The data set is classed as cell-based. On the technique in general: Tetrazolium assays rely on reduction of a dye to a coloured formazan, in cell work by metabolically active cells.

The nature of data set [4]: Cytotoxicity against African green monkey Vero cells assessed as cell viability at 50 uM by MTT assay relative to control. The data set is classed as cell-based. The settings on record: chlorocebus sabaeus, read-out: Activity.
The nature of data set [5]: Cytotoxicity against African green monkey Vero cells assessed as cell viability at 100 uM by MTT assay relative to control. In kind it is cell-based. The settings on record: chlorocebus sabaeus, read-out: Activity.
The subject of data set [6] is Leishmania donovani. As to the kind of experiment: Antileishmanial activity against promastigote stage of Leishmania donovani MHOM/IN/80/Dd8 harboring luciferase reporter gene at 25 uM after 48 hrs by Steady-Glo luminescence assay relative to control. The data set is classed as functional. The settings on record: MHOM/IN/80/Dd8, 48 h. A general note: In a reporter assay the amount or activity of a reporter protein is the signal.

The subject of data set [7] is Leishmania donovani. Kind of data set: Antileishmanial activity against promastigote stage of Leishmania donovani MHOM/IN/80/Dd8 harboring luciferase reporter gene at 50 uM after 48 hrs by Steady-Glo luminescence assay relative to control. In kind it is functional. The conditions noted are these: MHOM/IN/80/Dd8, 48 h.
For data set [8], the system named is Leishmania donovani. As to the kind of experiment: Antileishmanial activity against promastigote stage of Leishmania donovani MHOM/IN/80/Dd8 harboring luciferase reporter gene at 100 uM after 48 hrs by Steady-Glo luminescence assay relative to control. The data set is classed as functional. The conditions noted are these: MHOM/IN/80/Dd8, 48 h.
The test system of data set [9] is Leishmania donovani. As to the kind of experiment: Antileishmanial activity against Leishmania donovani MHOM/IN/80/Dd8 amastigotes harboring luciferase reporter gene infected in mouse J774 cells at 25 uM after 72 hrs by Steady-Glo luminescence assay relative to control. The data set is classed as functional. The conditions noted are these: MHOM/IN/80/Dd8, J774, 72 h.

Data set [10] deals with Leishmania donovani. Kind of data set: Antileishmanial activity against Leishmania donovani MHOM/IN/80/Dd8 amastigotes harboring luciferase reporter gene infected in mouse J774 cells at 50 uM after 72 hrs by Steady-Glo luminescence assay relative to control. In kind it is functional. The conditions noted are these: MHOM/IN/80/Dd8, J774, 72 h.
In data set [11] the test system is Leishmania donovani. Kind of data set: Antileishmanial activity against Leishmania donovani MHOM/IN/80/Dd8 amastigotes harboring luciferase reporter gene infected in mouse J774 cells at 100 uM after 72 hrs by Steady-Glo luminescence assay relative to control. In kind it is functional. The settings on record: MHOM/IN/80/Dd8, J774, 72 h.
Data set [12] in a line: Stability in simulated gastric fluid at 10 ug/ml measured after 2 hrs by UPLC analysis relative to control. The data set is classed as ADME. The conditions noted are these: read-out: Stability.
Data set [13] is described as follows: Stability in simulated intestinal fluid at 10 ug/ml measured after 2 hrs by UPLC analysis relative to control. The data set is classed as ADME. The settings on record: read-out: Stability.
A short description of data set [14]: Stability in mouse plasma at 10 ug/ml measured after 2 hrs by UPLC analysis relative to control. The data set is classed as ADME, cell-free. The settings on record: read-out: Stability.
Data set [15] in a line: Stability in mouse liver microsomes assessed as compound remaining after 1 hr in presence of NADPH by UPLC analysis. The conditions noted are these: read-out: Stability. The data set is classed as ADME, Microsome. Background: Liver microsomes are a subcellular fraction often used to study metabolism.
Data set [16] in a line: Half life in mouse liver microsomes after 1 hr in presence of NADPH by UPLC analysis. In kind it is ADME, Microsome.
Data set [17] is described as follows: Intrinsic clearance in mouse liver microsomes after 1 hr in presence of NADPH by UPLC analysis. The data set is classed as ADME, Microsome.
Data set [18] can be described thus: Selectivity index, ratio of CC50 for mouse J774 cells to IC50 for antileishmanial activity against Leishmania donovani MHOM/IN/80/Dd8 amastigotes harboring luciferase reporter gene. The conditions noted are these: read-out: Ratio CC50/IC50. The data set is classed as toxicity.
Data set [19] is described as follows: Selectivity index, ratio of CC50 for African green monkey Vero cells to IC50 for antileishmanial activity against Leishmania donovani MHOM/IN/80/Dd8 amastigotes harboring luciferase reporter gene. The settings on record: read-out: Ratio CC50/IC50. In kind it is toxicity.
The subject of data set [20] is Leishmania donovani. Kind of data set: Inhibition of ubiquinol cytochrome c reductase in Leishmania donovani promastigotes mitochondria at 2 uM using decylubiquinol as substrate in presence of cytochrome c relative to control.

Broadly, the inhibition is the drop in the measured response relative to a control, in per cent. In the data set with Leishmania donovani [1], `O=C(CC(=O)C(F)(F)F)c1ccco1` yielded an inhibition above 84%.

For the molecule `N#CC(C#N)=NNc1cccc(Cl)c1` [CARBONYL CYANIDE M-CHLOROPHENYLHYDRAZONE], the Activity in the data set with Leishmania donovani [2] is listed as 94.26%.

What is called half-life is how long it takes for the measured level to halve. In the case of `CCOC(=O)C(C(=O)c1ccc(OC)cc1)C(NC(C)=O)c1cc(OC)ccc1Br` (stereo not given), in data set [3], the viability at 25 µM was determined as 96.3%. Also, the viability at 50 µM in data set [4] worked out at 93.3%. In data set [5], the viability at 100 µM came out at 90.7%. Besides, the inhibition at 25 µM in the data set on Leishmania donovani [6] came out at 68%; in the data set on Leishmania donovani [9] it was 58.2%. In addition, the inhibition at 50 µM in the data set with Leishmania donovani [7] is 80.3%; in the data set on Leishmania donovani [10] it was 62.3%. Besides, the figures for the inhibition at 100 µM with Leishmania donovani [8] and with Leishmania donovani [11] were 81.2% and 64.2%, respectively. The remaining at 2 h, 10 ug/ml in data set [12] was 71.1%; in [13], 69.6%; in data set [14], 6.97%. The remaining at 1 h in data set [15] came to 57.8%. In addition, the half-life in data set [16] was 93 min. Further, the CLH in data set [17] is 0.005 mL/min/mg.

Regarding `CCCCCCCCCCCCCCCCOP(=O)([O-])OCC[N+](C)(C)C` [MILTEFOSINE], the results for the selectivity ratio in [18] and in data set [19] were 5.8 and 5.3, respectively.

For `CCCCCCC1C(=O)O[C@H](C)[C@H](NC(=O)c2cccc(NC=O)c2O)C(=O)O[C@@H](C)[C@@H]1OC(=O)CC(C)C` (stereo not given in full), in the data set on Leishmania donovani [20], the inhibition is above 93%.

The record behind these values is ChEMBL document CHEMBL4406843, “β-Amino acid derivatives as mitochondrial complex III inhibitors of L. donovani: A promising chemotype targeting visceral leishmaniasis” (Eur J Med Chem, 2019).
